Two molecules from US6812255B2, “Use of aloe-emodin in the treatment of neuroectodermal tumors” (Universita Degli Studi Di Padova, priority 2002, dated 2004) can be followed below.

pEC50: −log10 of the molar value.

In one data set the test system is Ewing's sarcoma (TC106). Briefly: In vitro cytotoxicity assay, Ewing's sarcoma cells. In kind it is cell-based. Particulars: Homo sapiens, 72 hours exposure, 0 to 100 μM, read-out: ED50 (half-maximal effective dose), cytotoxicity.
Data set [1] has as its system acute lymphocytic leukemia lines (CEM, CEM VBL). Briefly: In vitro cytotoxicity assay, leukemia lines. Particulars: Homo sapiens, 72 hours exposure, 0 to 100 μM, read-out: ED50 (half-maximal effective dose), cytotoxicity. In kind it is cell-based. The text has this:
tumors of different origin: T-cell leukemia (CEM) and T-cell leukemia vinblastine-resistant (CEM VBL), colon adenocarcinoma (LoVo 109) and colon adenocarcinoma doxorubicin-resistant (LoVo DX), cervix epithelioid carcinoma (HeLa);

The test system of data set [2] is neuroblastoma (IMR-32, IMR-5, AF8, SJ-N-KP). Briefly: In vitro cytotoxicity assay, neuroblastoma cell lines. Particulars: Homo sapiens, 72 hours exposure, 0 to 100 μM, read-out: ED50 (half-maximal effective dose), cytotoxicity. The data set is classed as cell-based.
From the text: (§2) tumors of neuroectodermic origin: neuroblastoma (IMR-32, IMR-5, AF8, SJ-N-KP), pPNET (TC32), Ewing's sarcoma (TC106), melanoma (Mel 23);
For data set [3], the system named is hemopoietic progenitors cells from cord blood. Briefly: Clonogenic test, CFU-GM from cord blood. In kind it is cell-based. Particulars: Homo sapiens, 336 h, methyl cellulose, 1-100 μM, 14 days, read-out: ED50 for the growth of CFU-GM colonies. The method, then: (§1) Clonogenic tests have also been carried out on hemopoietic progenitors cells, obtained from bone marrow (BM ? ) of healthy donors and from cord blood (CB □), and on neuroblastoma cells (SJ-N-KP ▪). The cell have been grown in methyl cellulose with scalar doses of AE in concentrations between 1 and 100 μM for 14 days.

Data set [4] can be described thus: In vitro cytotoxicity assay, normal fibroblasts. In kind it is cell-based. Conditions: human, normal lung fibroblasts (MRC5), 72 hours exposure, 0 to 100 μM, read-out: ED50 (half-maximal effective dose), cytotoxicity. An excerpt: normal cells: human lung fibroblasts (MRC5).
For data set [5], the system named is hemopoietic progenitors cells from bone marrow of healthy donors. The data set can be described thus: Clonogenic test, CFU-GM from bone marrow. The data set is classed as cell-based. Conditions: Homo sapiens, 336 h, methyl cellulose, 1-100 μM, 14 days, read-out: ED50 for the growth of CFU-GM colonies. On the procedure:
as §1

Data set [6] is described as follows: Acute and chronic toxicity in Swiss mice. In kind it is in vivo. Conditions: i.p. The method, then: In the first case assays on acute and chronic toxicity are carried out on Swiss mice (males aged 8-10 weeks) to show possible effects of general toxicity due to AE on weight, neurological and intestinal functions, and hematological parameters. The animals were treated with high doses by intraperitoneal route, between 30 mg/Kg/die and 50 mg/Kg/die, in one administration and with low doses, between 1 mg/Kg/die and 10 mg/Kg/die, for repeated dosages.
The animals were monitored to check possible neurological damages by means of periodically repeated behavioral tests, to check hematic toxicity by means of weekly hemochrome analyses, and to check intestinal toxicity by means of daily faeces analyses. Moreover, the animals have also been weighed twice a week during the whole test. At the end of the tests the animals have been killed and the autopsy has been conducted.

For data set [7], the system named is neuroectodermal tumor cells.

From the text for Ewing's sarcoma (TC106): as §2

Consider `O=C1c2cccc(O)c2C(=O)c2c(O)cc(CO)cc21` [AE, 1,8-dihydroxy-3-hydroxymethyl-9.10-anthracenedione], for which the pEC50 in the data set with Ewing's sarcoma (TC106) is 4.89; in data set [1], 4.00; in data set [2], 6.00; in data set [3], 3.92; in data set [5], 4.10. Besides, in data set [4], the EC50 at 72 h was 40 µM. In addition, in data set [6] (30-50 mg/Kg/die single or 1-10 mg/Kg/die repeated), the “general toxicity (weight, neurological, intestinal, hematological)” value was “No toxicity”. In addition, in data set [6] (at the end of the tests), the autopsy findings result is “not shown any damage to the main organs”.

On to `O=C1c2c(O)cccc2C(C2O[C@H](CO)[C@@H](O)[C@H](O)[C@H]2O)c2cc(CO)cc(O)c21` (stereo partly drawn) [glycosylated form of AE, 10-1,5anhydroglucosyl-1,8-dihydroxy-3-hydroxymethyl-9-anthrone], for which, in data set [7], the cytotoxic effect entry is recorded as “no cytotoxic effect”.
